According to patent publication US10610522B2, “Methods for retreating irritable bowel syndrome (IBS)” (Salix Pharmaceuticals, Inc., priority 2014, dated 2020):
Where two headings read alike, the source gives them in different places.

Experiments:
[1] = tested on: C. difficile infection (CDI); assay: Double-blind non-inferiority trial rifaximin 400 mg TID vs vancomycin 125 mg QID, 10 days, C. difficile infection; format: in vivo, human
Experimental: Criteria for entry into the trial were: • Age >=18 years old; • Had acute diarrhea at screening defined as >=3 unformed stools in the last 24 hours and at least one sign of enteric infection (fever, nausea, lose of appetite, vomiting, severe abdominal pain/discomfort); and • a positive C. diff stool toxin assay Endpoint:
The primary efficacy endpoint of the study was defined as the proportion of subjects achieving clinical success. Specifically, clinical success was defined as the absence of severe abdominal pain at Test of Cure (TOC), absence of fever (<38° C.) at TOC, and <3 unformed stools for two consecutive days at TOC.
Clinical success was defined as the: Absence of severe abdominal pain at TOC, absence of fever (<38° C.) at TOC, and <3 unformed stools for two consecutive days at TOC. Test of cure defined as Day 14+/−1 day.
Recurrence was defined to be a diarrhea and a positive C. diff stool toxin assay that occurred after initial clinical success.
Global cure of diarrhea was defined as subjects who were cured of diarrhea at TOC without recurrence at follow up.
Subjects who completed the study without achieving clinical success were censored at Day 14

[2] = Rifaximin systemic exposure/pharmacokinetics in healthy subjects, IBS subjects and liver impaired subjects; format: in vivo, human; conditions: for AUC / Cmax / half-life / Tmax / AUC(0-inf): human, plasma; for Tmax: read-out: Tmax, Median (range); for AUC(0-inf): po, single 550 mg oral dose, read-out: Mean AUC0-∞
Experimental: Subjects with non-c-IBS had mean AUCtau values following a single dose and multiple TID doses of 9.69 ng·h/mL and 16.0 ng·h/mL, respectively, reflecting an accumulation ratio (Rc; multiple-dose AUCtau/single-dose AUCtau) of […]. In subjects with liver impairment, systemic exposure is higher than that observed in healthy subjects or subjects with non-constipation irritable bowel syndrome, but low nonetheless.
Pharmacokinetic parameters were measured after a single dose and multiple doses (14 days).

[3] = Rifaximin N = 117, Vancomycin N = 115
[4] = Rifaximin vs Vancomycin, at TOC
[5] = Rifaximin vs Vancomycin, treatment period
[6] = adjusting for concomitant medication usage, Rifaximin N = 109, Vancomycin N = 112
[7] = adjusting for concomitant medication usage, Rifaximin N = 117, Vancomycin N = 115
[8] = adjusting for concomitant medication usage, Rifaximin vs Vancomycin
[9] = after initial clinical success, Rifaximin N = 67, Vancomycin N = 73
[10] = all subjects, Rifaximin N = 117, Vancomycin N = 115
[11] = at TOC, Rifaximin N = 108, Vancomycin N = 111
[12] = at TOC, Rifaximin N = 117, Vancomycin N = 115
[13] = cured at TOC without recurrence at follow up, Rifaximin N = 117, Vancomycin N = 115
[14] = subgroup Age <65, at TOC, Rifaximin N = 69, Vancomycin N = 62
[15] = subgroup Age >=65, at TOC, Rifaximin N = 39, Vancomycin N = 49
[16] = subgroup Female, at TOC, Rifaximin N = 68, Vancomycin N = 64
[17] = subgroup Male, at TOC, Rifaximin N = 40, Vancomycin N = 47

With CO[C@H]1/C=C/O[C@@]2(C)Oc3c(C)c(O)c4c(O)c(c5c(nc6cc(C)ccn65)c4c3C2=O)NC(=O)/C(C)=C\C=C\[C@H](C)[C@H](O)[C@@H](C)[C@@H](O)[C@@H](C)[C@H](OC(C)=O)[C@@H]1C [Rifaximin, (2S,16Z,18E,20S,21S,22R,23R,24R,25S,26S,27S,28E)-5,6,21,23,25 Pentahydroxy-27-methoxy-2,4,11,16,20,22,24,26-octamethyl-2,7-(epoxypentadeca-(1,11,13)trienimino) benzofuro (4,5-e) pyrido(1,2-a) benzimidazole-1,15(2H)-dione,25-acetate] the “Continuing Illness No: % of subjects” value [1, 3] was 77%, the “Continuing Illness No: number of subjects” value [1, 3] was 90 and the “Continuing Illness Yes: % of subjects” value [1, 3] was 23%. The “Continuing Illness Yes: number of subjects” value [1, 3] was 27, the “Global Cure of Diarrhea No: % of subjects” value [1, 3] was 29% and the “Global Cure of Diarrhea No: number of subjects” value [1, 3] was 34. The “Recurrence Rate per Person-Year Exposure” value [1, 3] was 0.613, the “Continuing Illness: Treatment Difference” value ([1]; Rifaximin vs Vancomycin) was −9.2% and the “Global Cure of Diarrhea: Treatment Difference” value ([1]; Rifaximin vs Vancomycin) was −3.0%. The “Recurrence of CDI: Treatment Difference” value ([1]; Rifaximin vs Vancomycin, after initial clinical success) was 4.7%, the “Clinical Success: Treatment Difference” value [1, 4] was −6.2% and the “Diarrhea: Treatment Difference” value [1, 4] was −1.5%. For the same compound, the “Fever: Treatment Difference” value [1, 4] was −7.5%, the “Severe Abdominal Pain/Discomfort: Treatment Difference” value [1, 4] was −11.5% and the “Adjusted mean number of unformed stools-ANOVA: Treatment Difference (95% CI)” value [1, 5] was 0.46 (−0.08, 1.00). The “Overall treatment difference in number of unformed stools-Mixed Model: Treatment Difference (95% CI)” value [1, 5] was 0.32 (−0.08, 0.72), the “Diarrhea No: % of subjects” value [1, 6] was 65% and the “Diarrhea No: number of subjects” value [1, 6] was 71. The “Diarrhea Yes: % of subjects” value [1, 6] was 35%, the “Diarrhea Yes: number of subjects” value [1, 6] was 38 and the “Clinical Success No: % of subjects” value [1, 7] was 50%. For the same compound, the “Clinical Success No: number of subjects” value [1, 7] was 59, the “Clinical Success Yes: % of subjects” value [1, 7] was 50% and the “Clinical Success Yes: number of subjects” value [1, 7] was 58. For the same compound, the “Clinical Success: Treatment Difference” value [1, 8] was −10.4%, the “Diarrhea: Treatment Difference” value [1, 8] was −8.1% and the “No Recurrence of CDI: % of subjects” value [1, 9] was 91%. The “No Recurrence of CDI: number of subjects” value [1, 9] was 61, the “Recurrence of CDI: % of subjects” value [1, 9] was 9% and the “Recurrence of CDI: number of subjects” value [1, 9] was 6. The “Recurrence No: % of subjects” value [1, 10] was 95%, the “Recurrence No: number of subjects” value [1, 10] was 111 and the “Recurrence Yes: % of subjects” value [1, 10] was 5%. The “Recurrence Yes: number of subjects” value [1, 10] was 6, the “Diarrhea No: % of subjects” value [1, 11] was 80% and the “Diarrhea No: number of subjects” value [1, 11] was 86. The “Diarrhea Yes: % of subjects” value [1, 11] was 20%, the “Diarrhea Yes: number of subjects” value [1, 11] was 22 and the “Fever No: % of subjects” value [1, 11] was 91%. For the same compound, the “Fever No: number of subjects” value [1, 11] was 98, the “Fever Yes: % of subjects” value [1, 11] was 9% and the “Fever Yes: number of subjects” value [1, 11] was 10. The “Severe Abdominal Pain/Discomfort No: % of subjects” value [1, 11] was 74%, the “Severe Abdominal Pain/Discomfort No: number of subjects” value [1, 11] was 80 and the “Severe Abdominal Pain/Discomfort Yes: % of subjects” value [1, 11] was 26%. For the same compound, the “Severe Abdominal Pain/Discomfort Yes: number of subjects” value [1, 11] was 28, the “Clinical Success No: % of subjects” value [1, 12] was 43% and the “Clinical Success No: number of subjects” value [1, 12] was 50. For the same compound, the “Clinical Success Yes: % of subjects” value [1, 12] was 57%, the “Clinical Success Yes: number of subjects” value [1, 12] was 67 and the “Global Cure of Diarrhea Yes: % of subjects” value [1, 13] was 71%. For the same compound, the “Global Cure of Diarrhea Yes: number of subjects” value [1, 13] was 83, the “Adjusted mean number of unformed stools-ANOVA” value ([1]; during the treatment period, Rifaximin N = 117, Vancomycin N = 115) was 2.36 and the “Diarrhea: % of subjects” value [1, 14] was 23%. The “Diarrhea: number of subjects” value [1, 14] was 16, the “No Diarrhea: % of subjects” value [1, 14] was 77% and the “No Diarrhea: number of subjects” value [1, 14] was 53. The “Diarrhea: Treatment Difference” value ([1]; subgroup Age <65, at TOC, Rifaximin vs Vancomycin) was −3.8%, the “Diarrhea: % of subjects” value [1, 15] was 15% and the “Diarrhea: number of subjects” value [1, 15] was 6. The “No Diarrhea: % of subjects” value [1, 15] was 85%, the “No Diarrhea: number of subjects” value [1, 15] was 33 and the “Diarrhea: Treatment Difference” value ([1]; subgroup Age >=65, at TOC, Rifaximin vs Vancomycin) was 3.0%. For the same compound, the “Diarrhea: % of subjects” value [1, 16] was 21%, the “Diarrhea: number of subjects” value [1, 16] was 14 and the “No Diarrhea: % of subjects” value [1, 16] was 79%. For the same compound, the “No Diarrhea: number of subjects” value [1, 16] was 54, the “Diarrhea: Treatment Difference” value ([1]; subgroup Female, at TOC, Rifaximin vs Vancomycin) was −3.4% and the “Diarrhea: % of subjects” value [1, 17] was 20%. For the same compound, the “Diarrhea: number of subjects” value [1, 17] was 8, the “No Diarrhea: % of subjects” value [1, 17] was 80% and the “No Diarrhea: number of subjects” value [1, 17] was 32. For the same compound, the “Diarrhea: Treatment Difference” value ([1]; subgroup Male, at TOC, Rifaximin vs Vancomycin) was 1.3%, the AUC ([2]; 550 mg, 550 mg BID repeat dosing, Child Pugh B, read-out: Mean steady-state AUCtau) was 161 ng·h/mL and the AUC ([2]; 550 mg, 550 mg BID repeat dosing, Child-Pugh A, read-out: Mean steady-state AUCtau) was 118 ng·h/mL. For the same compound, the AUC ([2]; 550 mg, 550 mg BID repeat dosing, Child-Pugh C, read-out: Mean steady-state AUCtau) was 246 ng·h/mL, the AUC ([2]; 550 mg, multiple-dose TID, healthy subjects, read-out: Mean AUCtau, steady-state) was 9.3 ng·h/mL and the AUC ([2]; 550 mg, subjects with non-c-IBS, multiple TID doses, read-out: Mean AUCtau) was 16 ng·h/mL. For the same compound, the AUC ([2]; 550 mg, subjects with non-c-IBS, single dose, read-out: Mean AUCtau) was 9.69 ng·h/mL, the AUC ([2]; multiple-dose BID, healthy subjects, read-out: Mean AUCtau, steady-state) was 12.3 ng·h/mL and the AUC ([2]; oral, 550 mg, 550 mg BID, Child-Pugh C, read-out: Mean steady-state AUCtau) was 257 ng·h/mL. The Cmax ([2]; oral, 550 mg, 550 mg BID, Child-Pugh C, read-out: Mean steady-state Cmax) was 39.7 ng/mL, the half-life ([2]; oral, 550 mg, Child-Pugh C subjects, read-out: Mean half-life (converted)) was 6.35 h and the AUC ([2]; oral, 550 mg, Healthy Subjects, 550 mg Multiple-Dose TID (Day 14), N = 14, read-out: AUCtau, mean (SD)) was 9.3 ng·h/mL. For the same compound, the Cmax ([2]; oral, 550 mg, Healthy Subjects, 550 mg Multiple-Dose TID (Day 14), N = 14, read-out: Cmax, mean (SD)) was 2.39 ng/mL, the half-life ([2]; oral, 550 mg, Healthy Subjects, 550 mg Multiple-Dose TID (Day 14), N = 14, read-out: Half-life, harmonic mean (pseudo SD) (converted)) was 5.63 h and the Tmax ([2]; oral, 550 mg, Healthy Subjects, 550 mg Multiple-Dose TID (Day 14), N = 14) was 1 h. The AUC ([2]; oral, 550 mg, Healthy Subjects, 550 mg Single-Dose (Day 1), N = 12, read-out: AUCtau, mean (SD)) was 10.4 ng·h/mL, the Cmax ([2]; oral, 550 mg, Healthy Subjects, 550 mg Single-Dose (Day 1), N = 12, read-out: Cmax, mean (SD)) was 4.04 ng/mL and the half-life ([2]; oral, 550 mg, Healthy Subjects, 550 mg Single-Dose (Day 1), N = 12, read-out: Half-life, harmonic mean (pseudo SD) (converted)) was 1.83 h. For the same compound, the Tmax ([2]; oral, 550 mg, Healthy Subjects, 550 mg Single-Dose (Day 1), N = 12) was 0.75 h, the AUC ([2]; oral, 550 mg, IBS-D Patients, 550 mg Multiple-Dose TID (Day 14), N = 24, read-out: AUCtau, mean (SD)) was 16 ng·h/mL and the Cmax ([2]; oral, 550 mg, IBS-D Patients, 550 mg Multiple-Dose TID (Day 14), N = 24, read-out: Cmax, mean (SD)) was 4.22 ng/mL. It also gave a half-life ([2]; oral, 550 mg, IBS-D Patients, 550 mg Multiple-Dose TID (Day 14), N = 24, read-out: Half-life, harmonic mean (pseudo SD) (converted)) of 6.08 h, a Tmax ([2]; oral, 550 mg, IBS-D Patients, 550 mg Multiple-Dose TID (Day 14), N = 24) of 1 h and an AUC ([2]; oral, 550 mg, IBS-D Patients, 550 mg Single-Dose (Day 1), N = 24, read-out: AUCtau, mean (SD)) of 9.69 ng·h/mL. It also gave a Cmax ([2]; oral, 550 mg, IBS-D Patients, 550 mg Single-Dose (Day 1), N = 24, read-out: Cmax, mean (SD)) of 3.49 ng/mL, a half-life ([2]; oral, 550 mg, IBS-D Patients, 550 mg Single-Dose (Day 1), N = 24, read-out: Half-life, harmonic mean (pseudo SD) (converted)) of 3.14 h and a Tmax ([2]; oral, 550 mg, IBS-D Patients, 550 mg Single-Dose (Day 1), N = 24) of 0.775 h. The Cmax ([2]; oral, 550 mg, single 550-mg dose, fasted healthy subjects, read-out: Cmax) was 4.1 ng/mL, the AUC(0-inf) ([2]; 550 mg, fasted healthy subjects) was 11.1 ng·h/mL and the AUC(0-inf) ([2]; 550 mg, fed healthy subjects) was 22.5 ng·h/mL. For the same compound, the Systemic absorption ([2]; regardless of food intake or presence of GI disease) was < 0.4%.
